{"source": "patent US20210113492A1", "about": "“METHOD FOR INHIBITING PROLIFERATION AND METASTASIS OF CANCER CELLS BY USING NAPHTHOQUINONE DERIVATIVE” (National Tsing Hua University, priority 2019, published 2021)", "key": {"[1]": {"tested_on": "human primary glioblastoma cells (U87)", "assay": "Boyden chamber invasion assay, U87", "assay_type": "cell-based", "settings": "2.5, 5 and 10 μM, 24 h, no dose dependency (FIG. 2B)", "method": "(§1) Cells were harvested by […] and resuspended in a serum-free medium with 0.1% BSA. Then, […] of cell suspension (2×10^5 cells) was seeded into the upper insert of SPLInsert with Polyethylene terephthalate (PET) membrane (pore size: 8.0 μm) (SPL Lifesciences, Korea) pre-coated with matrigel (BD Biosciences, San Jose, Calif.). The bottom well of 24-well plate of SPLInsert was filled with cell medium containing 10% FBS with different concentrations of isoplumbagin (5, 7.5 and 10 μM, Experimental group of oral squamous cell carcinoma cells (OC3-IV2); 2.5, 5 and 10 μM, Experimental groups of human primary glioblastoma cells (U87), human non-small cell lung carcinoma cells (H1299), human prostate cancer cells (PC3) and human cervical cancer cells (Hela)) or without isoplumbagin (DMSO added). […] Number of cells was counted using Image J. Relative invasion ability was calculated as cell number per area.\n(§2) FIGS. 2A-2E show the inhibitory effect of different doses of isoplumbagin on invasion for oral squamous cell carcinoma cells (OC3-IV2), human primary glioblastoma cells (U87), human non-small cell lung carcinoma cells (H1299), prostate cancer cells (PC3) and cervical cancer cells (Hela) assessed with the Boyden chamber assays. *Compared with solvent control (DMSO). […]"}, "[2]": {"tested_on": "human non-small cell lung carcinoma cells (H1299)", "assay": "Boyden chamber invasion assay, H1299", "assay_type": "cell-based", "settings": "2.5, 5 and 10 μM, 24 h, dose dependency (FIG. 2C)", "method": "as §1, §2"}, "[3]": {"tested_on": "human primary glioblastoma cells (U87)", "assay": "Mitochondrial morphology and distribution by immunofluorescence staining, U87", "assay_type": "cell-based", "settings": "1 μM or 2.5 μM, 24 hours, anti-TOM20 staining", "method": "The effects of isoplumbagin on mitochondrial morphology and distribution of OC3-IV2, U87, H1299 and PC3 cell lines were measured by immunofluorescence staining After OC3-IV2, U87, H1299, and PC3 cells were treated with DMSO, 1 μM, or 2.5 μM isoplumbagin for 24 hours, cells were fixed by 4% (v/v) paraformaldehyde and permeabilized by 0.1% (v/v) Triton X-100. Cells were incubated in blocking buffer containing 1% bovine serum albumin. After blocking, cells were incubated overnight with indicated primary antibodies against TOM20 (a mitochondria marker, sc-11415, Santa Cruz), and then incubated with Alexa Fluor 488-conjugated secondary antibodies (A11001, Invitrogen). Nucleus was stained with DAPI, actin was stained with rhodamine phalloidin (A12379, Invitrogen) and cells were mounted using Prolong Gold reagent (P36930, Invitrogen). 63 images were taken by LSM800 confocal microscopes (Zeiss).\nFIGS. 5A-5D show the effect of isoplumbagin on mitochondrial morphogenesis and distribution of oral squamous cell carcinoma cells (OC3-IV2), human primary glioblastoma cells (U87), human non-small cell lung carcinoma cells (H1299) and human prostate cancer cells (PC3). Cells treated with either solvent control (DMSO) or isoplumbagin were determined by immunofluorescence staining using anti-TOM20 (mitochondria, green) antibody, rhodamine phalloidin (actin, red) and DAPI (nucleus, blue). […]"}, "[4]": {"tested_on": "mitochondrial complex IV", "assay": "Mitochondrial complex activity in permeabilized cells (Oroboros)", "assay_type": "cell-based, human", "settings": "OC3-IV2 permeabilized with 5 μM digitonin; 2.5 μM", "method": "For the cell permeabilization and measurement of mitochondrial complex activity in permeabilized cells using Oroboros Instruments, 5×10^5 cells/mL treated with DMSO or 2.5 μM isoplumbagin suspended in 2 mL MiR05 buffer (110 mM D-sucrose, 0.5 mM EGTA, 3.0 mM MgCl2, 60 mM lactobionic acid, 10 mM KH2PO4, 20 mM taurine, 20 mM HEPES, 1 g/L BSA, pH 7.1) were added in O2k Oxygraph chambers. After cells had stabilized at routine respiration, plasma membrane permeabilization was performed by adding 5 μM digitonin and then O2 consumption rate was measured in response to sequential additions of 10 mM glutamate and 2 mM malate or 10 mM succinate, followed by 5 mM ADP, […], 0.5 μM FCCP, 1 μM rotenone, 1 μM antimycin A, 0.1 mM TMPD, 0.4 mM ascorbate and 5 mM NaN3.\nFIGS. 6A and 6B show the inhibitory effect of isoplumbagin on mitochondrial function and complex IV activity of oral squamous cell carcinoma cells (OC3-IV2). Oxygen consumption rate (OCR) of OC3-IV2 cells treated with DMSO (as control) or 2.5 μM isoplumbagin were measured by Oroboros instruments (FIG. 6A). […] OC3-IV2 cells treated with DMSO or 2.5 μM isoplumbagin were permeabilized with 5 μM digitonin (Dig) and added indicated substrates and inhibitors, and then mitochondria complex I/IV activity were determined by Oroboros instruments (FIG. 6B). […]"}}}
{"smiles": "CC1=CC(=O)c2cccc(O)c2C1=O", "note": "[isoplumbagin, 5-hydroxy-3-methyl-1,4-naphthoquinone]", "values": [{"measurement": "cancer cells migrating through the membrane (invasion)", "setting": "[1]", "value": "decrease significantly"}, {"measurement": "cancer cells migrating through the membrane (invasion)", "setting": "[2]", "value": "decrease significantly"}, {"measurement": "mitochondrial morphogenesis and distribution", "setting": "[3]", "value": "can alter the mitochondrial morphogenesis and distribution"}, {"measurement": "mitochondrial complex IV activity", "setting": "[4]", "value": "inhibiting mitochondrial complex IV activity"}]}
